Results published in US10538555B2, “Macrocyclic inhibitors of the PD-1/PD-L1 and CD80(B7-1)/PD-L1 protein/protein interactions” (BRISTOL-MYERS SQUIBB COMPANY, priority 2014, dated 2020).
Where a SMILES comes first, the peptide text is derived from it. Bridges are numbered along the chain shown (N, C = ends). [ ]: non-standard residue; d: D form. ξ: configuration not given here. Bta = N[C@@H](Cc1csc2ccccc12)C(=O)O; Hyp = O=C(O)[C@@H]1C[C@@H](O)CN1; NMeNle = CCCC[C@H](NC)C(=O)O; hSer = N[C@@H](CCO)C(=O)O; NMeA = CN[C@@H](C)C(=O)O; ξC = NC(CS)C(=O)O

Each molecule was assayed against T1, Human PD-L1/PD-1 (Homo sapiens, UniProt Q9NZQ7) (assay: HTRF Human PD-L1/PD-1 binding assay (PD-1-Ig/PD-L1-His)). Conditions: PD-L1-His 10 nM, PD-1-Ig 20 nM; class symbol; read-out: HTRF Human PD-L1/PD-1 Binding Assay IC50 Range.
T1 construct: TVMV protease cleavage site (C); made in house; host or cells: HEK293T cells
T1 sequence (Q9NZQ7 with tags, fused parts or gaps): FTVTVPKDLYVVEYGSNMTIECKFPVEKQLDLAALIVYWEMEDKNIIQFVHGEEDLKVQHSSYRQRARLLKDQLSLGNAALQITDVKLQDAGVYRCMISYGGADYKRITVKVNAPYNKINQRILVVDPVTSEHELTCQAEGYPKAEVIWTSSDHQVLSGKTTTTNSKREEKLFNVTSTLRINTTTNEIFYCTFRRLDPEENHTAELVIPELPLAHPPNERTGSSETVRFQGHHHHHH
Outline: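 HTRF competition using HEK293T-expressed human PD-1(25-167)-Ig at 20 nM and PD-L1(18-239)-His at 10 nM, compound incubated first with PD-L1 for 15 min, then with PD-1 for 15 min. Signal read as 665/620 nm ratio 30 min after adding Eu anti-Ig and APC anti-His antibodies.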

Question: Which IC50 does the source give for `CCCC[C@H]1C(=O)N(C)[C@@H](CCCC)C(=O)N[C@@H](CCCNC(=N)N)C(=O)NC(C(=O)NCC(N)=O)CSCC(=O)N[C@@H](Cc2ccc(O)cc2)C(=O)N(C)[C@@H](C)C(=O)N[C@@H](CC(N)=O)C(=O)N2CCC[C@H]2C(=O)N[C@@H](CC(N)=O)C(=O)N[C@@H](CC(N)=O)C(=O)N2C[C@H](O)C[C@H]2C(=O)N[C@@H](Cc2c[nH]c3ccccc23)C(=O)N[C@@H](CO)C(=O)N[C@@H](Cc2c[nH]c3ccccc23)C(=O)N1C` (stereo partly drawn) [Example 10014] ({CH2CO}-Y[NMeA]NPNN[Hyp]WSW[NMeNle][NMeNle]R[ξC]G-NH2; thioether N-14) here?
Answer: 10 to 99.9 nM

Question: `CCCC[C@H]1C(=O)N(C)[C@@H](CCCC)C(=O)N[C@@H](CCCNC(=N)N)C(=O)NC(C(=O)NCC(N)=O)CSCC(=O)N[C@@H](Cc2ccc(O)cc2)C(=O)N(C)[C@@H](C)C(=O)N[C@@H](CC(N)=O)C(=O)N2CCC[C@H]2C(=O)N[C@@H](CO)C(=O)N[C@@H](CO)C(=O)N2CCC[C@H]2C(=O)N[C@@H](Cc2c[nH]c3ccccc23)C(=O)N[C@@H](CO)C(=O)N[C@@H](Cc2csc3ccccc23)C(=O)N1C` (stereo partly drawn) [Example 10015] ({CH2CO}-Y[NMeA]NPSSPWS[Bta][NMeNle][NMeNle]R[ξC]G-NH2; thioether N-14) was tested. Which IC50 did it give?
Answer: 1 to 9.9 nM

Question: With `CCCC[C@H]1C(=O)N(C)[C@@H](CCCC)C(=O)N[C@@H](CCCNC(=N)N)C(=O)NC(C(=O)NCC(N)=O)CSCC(=O)N[C@@H](Cc2ccc(O)cc2)C(=O)N(C)[C@@H](C)C(=O)N[C@@H](CC(N)=O)C(=O)N2CCC[C@H]2C(=O)N[C@@H](CO)C(=O)N[C@@H](CO)C(=O)N2C[C@H](O)C[C@H]2C(=O)N[C@@H](Cc2c[nH]c3ccccc23)C(=O)N[C@@H](CO)C(=O)N[C@@H](Cc2csc3ccccc23)C(=O)N1C` (stereo partly drawn) [Example 10016] ({CH2CO}-Y[NMeA]NPSS[Hyp]WS[Bta][NMeNle][NMeNle]R[ξC]G-NH2; thioether N-14) as the molecule, how does the IC50 read?
Answer: 10 to 99.9 nM

Question: `CCCC[C@H]1C(=O)N(C)[C@@H](CCCC)C(=O)N[C@@H](CCCNC(=N)N)C(=O)NC(C(=O)NCC(N)=O)CSCC(=O)N[C@@H](Cc2ccc(O)cc2)C(=O)N(C)[C@@H](C)C(=O)N[C@@H](CC(N)=O)C(=O)N2CCC[C@H]2C(=O)N[C@@H](CO)C(=O)N[C@@H](CO)C(=O)N2CCC[C@H]2C(=O)N[C@@H](Cc2c[nH]c3ccccc23)C(=O)N[C@@H](CO)C(=O)N[C@@H](Cc2c[nH]c3ccccc23)C(=O)N1C` (stereo partly drawn) [Example 10017] ({CH2CO}-Y[NMeA]NPSSPWSW[NMeNle][NMeNle]R[ξC]G-NH2; thioether N-14) was tested. Which IC50 did it give?
Answer: 10 to 99.9 nM

Question: `CCCC[C@H]1C(=O)N(C)[C@@H](CCCC)C(=O)N[C@@H](CCCNC(=N)N)C(=O)NC(C(=O)NCC(N)=O)CSCC(=O)N[C@@H](Cc2ccc(O)cc2)C(=O)N(C)[C@@H](C)C(=O)N[C@@H](CC(N)=O)C(=O)N2CCC[C@H]2C(=O)N[C@@H](CO)C(=O)N[C@@H](CO)C(=O)N2C[C@H](O)C[C@H]2C(=O)N[C@@H](Cc2c[nH]c3ccccc23)C(=O)N[C@@H](CO)C(=O)N[C@@H](Cc2c[nH]c3ccccc23)C(=O)N1C` (stereo partly drawn) [Example 10018] ({CH2CO}-Y[NMeA]NPSS[Hyp]WSW[NMeNle][NMeNle]R[ξC]G-NH2; thioether N-14) was tested. Which IC50 did it give?
Answer: 10 to 99.9 nM

Question: For `CCCC[C@H]1C(=O)N(C)[C@@H](CCCC)C(=O)N[C@@H](CCCNC(=N)N)C(=O)NC(C(=O)NCC(N)=O)CSCC(=O)N[C@@H](Cc2ccc(O)cc2)C(=O)N(C)[C@@H](C)C(=O)N[C@@H](CC(N)=O)C(=O)N2CCC[C@H]2C(=O)N[C@@H](CCO)C(=O)N[C@@H](CCO)C(=O)N2CCC[C@H]2C(=O)N[C@@H](Cc2c[nH]c3ccccc23)C(=O)N[C@@H](CO)C(=O)N[C@@H](Cc2csc3ccccc23)C(=O)N1C` (stereo partly drawn) [Example 10019] ({CH2CO}-Y[NMeA]NP[hSer][hSer]PWS[Bta][NMeNle][NMeNle]R[ξC]G-NH2; thioether N-14), which IC50 is on record?
Answer: 10 to 99.9 nM

Question: `CCCC[C@H]1C(=O)N(C)[C@@H](CCCC)C(=O)N[C@@H](CCCNC(=N)N)C(=O)NC(C(=O)NCC(N)=O)CSCC(=O)N[C@@H](Cc2ccc(O)cc2)C(=O)N(C)[C@@H](C)C(=O)N[C@@H](CC(N)=O)C(=O)N2CCC[C@H]2C(=O)N[C@@H](CCO)C(=O)N[C@@H](CCO)C(=O)N2CCC[C@H]2C(=O)N[C@@H](Cc2c[nH]c3ccccc23)C(=O)N[C@@H](CO)C(=O)N[C@@H](Cc2csc3ccccc23)C(=O)N1C` (stereo partly drawn) [Example 10020] ({CH2CO}-Y[NMeA]NP[hSer][hSer]PWS[Bta][NMeNle][NMeNle]R[ξC]G-NH2; thioether N-14) was tested. Which IC50 did it give?
Answer: 1 to 9.9 nM

Question: `CCCC[C@H]1C(=O)N(C)[C@@H](CCCC)C(=O)N[C@@H](CCCNC(=N)N)C(=O)NC(C(=O)NCC(N)=O)CSCC(=O)N[C@@H](Cc2ccc(O)cc2)C(=O)N(C)[C@@H](C)C(=O)N[C@@H](CC(N)=O)C(=O)N2CCC[C@H]2C(=O)N[C@@H](CCO)C(=O)N[C@@H](CCO)C(=O)N2CCC[C@H]2C(=O)N[C@@H](Cc2c[nH]c3ccccc23)C(=O)N[C@@H](CO)C(=O)N[C@@H](Cc2c[nH]c3ccccc23)C(=O)N1C` (stereo partly drawn) [Example 10021] ({CH2CO}-Y[NMeA]NP[hSer][hSer]PWSW[NMeNle][NMeNle]R[ξC]G-NH2; thioether N-14) was tested. Which IC50 did it give?
Answer: 10 to 99.9 nM

Question: `CCCC[C@H]1C(=O)N(C)[C@@H](CCCC)C(=O)N[C@@H](CCCNC(=N)N)C(=O)NC(C(=O)NCC(N)=O)CSCC(=O)N[C@@H](Cc2ccc(O)cc2)C(=O)N(C)[C@@H](C)C(=O)N[C@@H](CC(N)=O)C(=O)N2CCC[C@H]2C(=O)N[C@@H](CCO)C(=O)N[C@@H](CO)C(=O)N2C[C@H](O)C[C@H]2C(=O)N[C@@H](Cc2c[nH]c3ccccc23)C(=O)N[C@@H](CO)C(=O)N[C@@H](Cc2csc3ccccc23)C(=O)N1C` (stereo partly drawn) [Example 10023] ({CH2CO}-Y[NMeA]NP[hSer]S[Hyp]WS[Bta][NMeNle][NMeNle]R[ξC]G-NH2; thioether N-14) was tested. Which IC50 did it give?
Answer: 10 to 99.9 nM

Question: Which IC50 does the source give for `CCCC[C@H]1C(=O)N(C)[C@@H](CCCC)C(=O)N[C@@H](CCCNC(=N)N)C(=O)NC(C(=O)NCC(N)=O)CSCC(=O)N[C@@H](Cc2ccc(O)cc2)C(=O)N(C)[C@@H](C)C(=O)N[C@@H](CC(N)=O)C(=O)N2CCC[C@H]2C(=O)N[C@@H](CCO)C(=O)N[C@@H](CO)C(=O)N2CCC[C@H]2C(=O)N[C@@H](Cc2c[nH]c3ccccc23)C(=O)N[C@@H](CO)C(=O)N[C@@H](Cc2c[nH]c3ccccc23)C(=O)N1C` (stereo partly drawn) [Example 10024] ({CH2CO}-Y[NMeA]NP[hSer]SPWSW[NMeNle][NMeNle]R[ξC]G-NH2; thioether N-14) here?
Answer: 10 to 99.9 nM

Same assay, conditions: PD-L1-His 10 nM, PD-1-Ig 20 nM; read-out: HTRF Human PD-L1/PD-1 Binding Assay IC50

Question: With `CCCC[C@H]1C(=O)N(C)[C@@H](CCCC)C(=O)N[C@@H](CCCNC(=N)N)C(=O)NC(C(=O)NCC(N)=O)CSCC(=O)N[C@@H](Cc2ccc(O)cc2)C(=O)N(C)[C@@H](C)C(=O)N[C@@H](CC(N)=O)C(=O)N2CCC[C@H]2C(=O)N[C@@H](CC(N)=O)C(=O)N[C@@H](CC(N)=O)C(=O)N2CCC[C@H]2C(=O)N[C@@H](Cc2c[nH]c3ccccc23)C(=O)N[C@@H](CO)C(=O)N[C@@H](Cc2c[nH]c3ccccc23)C(=O)N1C` (stereo partly drawn) [Example 10013] ({CH2CO}-Y[NMeA]NPNNPWSW[NMeNle][NMeNle]R[ξC]G-NH2; thioether N-14) as the molecule, how does the IC50 read?
Answer: 63.4 nM

Question: `CCCC[C@H]1C(=O)N(C)[C@@H](CCCC)C(=O)N[C@@H](CCCNC(=N)N)C(=O)NC(C(=O)NCC(N)=O)CSCC(=O)N[C@@H](Cc2ccc(O)cc2)C(=O)N(C)[C@@H](C)C(=O)N[C@@H](CC(N)=O)C(=O)N2CCC[C@H]2C(=O)N[C@@H](CCO)C(=O)N[C@@H](CO)C(=O)N2CCC[C@H]2C(=O)N[C@@H](Cc2c[nH]c3ccccc23)C(=O)N[C@@H](CO)C(=O)N[C@@H](Cc2csc3ccccc23)C(=O)N1C` (stereo partly drawn) [Example 10022] ({CH2CO}-Y[NMeA]NP[hSer]SPWS[Bta][NMeNle][NMeNle]R[ξC]G-NH2; thioether N-14) was tested. Which IC50 did it give?
Answer: 134 nM
